Measured values: US20040259806A1 (priority 2001, published 2004)

Experiments:
IL-2 = IL-2 production by Con A stimulated spleen cells (CTLL-2 assay); assay type: in vivo, mice; conditions: 4 days after therapy; Group 7 (0.1 ìg/kg ip) compared to Group 3 (isoniazid control); Con A stimulated spleen cells
Protocol: In RPMI-1640, spleen cells were diluted to a concentration of 10^7/ml with 10% fetal calf serum, 2 mM L-glutamine and 80 ìg/ml gentamycin. A 100 ìl cell suspension was added to each well of a 96-well culture plate and cytokine production was induced by Con A at a final concentration of 2.5 ìg/ml. A control well included RPMI-1640. For 24 hours, cells were incubated at 37° C. and humidified in 5% CO2. Following incubation, […] of supernatant was removed from each well and stored at −70° C.
In order to determine the IL-2 concentration in cell culture supernatants, the CTLL-2 IL-2 dependent cell line was used. CTLL-IL-2 cells were washed twice in RPMI-1640 and counted with a Goriaev hemocytometer. Supernatants were diluted in 96-well culture plates at dilutions of 1:5, 1:15, 1:45 and 1:135 in a volume of 100 il. IL-2 standard dilutions were also prepared. Cells were diluted to 2×10^5/ml in RPMI-1640 with 10% inactivated fetal calf serum, 2 mM L-glutamine, 80 ìg/ml gentamycin. The 100 ìl suspension was added to each well of the culture plate and incubated for 48 h at 37° C. in 5% CO2 humidity. Ten ìl of 5 i Ci/ml ^3H-thymidine was added to each well 16 h before the end of incubation. Following incubation, the cells were harvested on filters through the use of a semi-automated harvester and samples were counted in a liquid scintillation counter.

peritoneal macrophages = assay: Phagocytosis and killing of Saccharomyces cerevisiae by peritoneal macrophages of treated infected mice; assay type: in vivo
Protocol: In order to study phagocytosis, peritoneal macrophages were plated at a concentration of 10^6 cells per Petri dish and media including 10^7 Saccharomyces cerevisiae cells, opsonized by mice serum was added. Results were evaluated using the Mann-Whitney test. Phagocytic activity was calculated after determination of percentage of macrophages involved in phagocytes. The phagocytic index was determined by calculating the average number of yeast phagocytosed per one cell. Killing activity was resolved by the number of yeast digested by macrophages after 1.5 h of incubation. Finally, the killing index was determined as follows: [formula]

spleen cells = assay: Spleen cell proliferation (Con A, LPS, tuberculin) from treated infected mice; assay type: in vivo; conditions: after 24 days; Group 3 the isoniazid control group
Protocol: Spleens from mice were harvested aseptically, homogenized in RPMI-1640 medium (Biolot, Russia) and filtered through two layers of sterile gauze. Erythrocytes were lysed in 0.83% percent ammonium chloride solution after centrifugation of the homogenate. Spleen cells were washed twice with RPMI-1640 with 2 mM L-glutamine and […] gentamycin (Sigma, St. Louis, Mo.), then counted using a Goriaev hemocytometer.
Spleen cells and thymic cells were isolated as described above. In vitro, thymic cells were diluted to 10^7/ml in RPMI-1640 with 2 mM L-glutamine, 80 ìg/ml gentamycin and 4% heat-inactivated fetal calf serum (Sigma, St. Louis, Mo.). Spleen cells were diluted to 3×10^6/ml in RPMI-1640 with 2 mM L-glutamine, 80 ìg/ml gentamycin and 20% inactivated fetal calf serum. 0.5 ìg/ml Concanavalin A (Con A, Sigma, St. Louis, Mo.) was used to stimulate thymic cell proliferation. For spleen cell proliferation, 0.5 ìg/ml Con A, 10 ìg/ml lipopolysaccharide (Sigma, St. Louis, Mo.), and 50 ìg/ml tuberculin purified protein derivative (PPD) were utilized. The assay was carried out in 96-well plates and cell cultures were incubated for 72 hours, or 96 hours if tuberculin was used, at 37° C. in humidified 5% CO2, then pulsed with 5 ìl Ci/ml ^3H-thymidine overnight (approximately 16 h) and harvested on filters using a semi-automated harvester (Titertek™, Flow Laboratories, Norway). Filters were dried and proliferation calculated by ^3H-thymidine incorporation by counting samples in a liquid scintillation counter (LKB 1217 Racketa, Wallace, Sweden). Data was expressed in impulses per minute.

M. bovis 8 = assay type: in vivo, mice
[1] = 24 days after end of therapy, Group 7 (0.1 ìg/kg ip) versus Group 3 (isoniazid control)

Structure (SMILES): NNC(=O)c1ccncc1 [isoniazid, isonicotinic acid hydrazide, reference compound]
- IL-2 production (IL-2): 16.6±2.6 U/ml
- phagocytic killing (peritoneal macrophages; 24 days after treatment, Group 3 (isoniazid), 178.0 in uninfected mice, p=0.05): 62.0 U
- Phagocytosis (peritoneal macrophages; 24 days after treatment, isoniazid treatment group): returned to the level seen in uninfected mice
- phagocytic activity (peritoneal macrophages; after 4 days, Group 7 (SCV-07 0.1 ìg/kg ip) compared to Group 3 (isoniazid control), p≦0.05, 64.2% in uninfected mice): 19.4%
- killing (peritoneal macrophages; after 4 days, SCV-07 versus control, p≦0.05): 196.4
- phagocytic activity (peritoneal macrophages; after 17 days, Group 6 (1.0 ìg/kg ip, 10 injections) versus Group 3 (isoniazid control)): 49.8%
- phagocytic index (peritoneal macrophages; after 17 days, Group 6 (1.0 ìg/kg ip, 10 injections) versus Group 3, p=0.05): 4.91 U
- spleen cell proliferative response (Con A and LPS) (spleen cells): remained low
- growth of M bovis cultured from spleens (M. bovis 8; [1]): 275±14.1 CFU
- lung weight index (M. bovis 8; [1]): 1.07±0.23
- spleen weight index (M. bovis 8; [1]): 1.94±0.31
- increase in body weight (M. bovis 8; 24 days after end of therapy, Group 7 (SCV-07 0.1 ìg/kg ip, 5 injections, with isoniazid) versus Group 3 (isoniazid control)): 20.7%
- lung damage index, difference to untreated mice (Group 2) (M. bovis 8; isoniazid alone (Group 3), 10 mg/kg subcutaneous, Day 28 of infection): no significant difference
